Read-outs that look alike come from different tables or passages of the source.
Columns and labels:
PHA-treated lymphocytes = test: MTT assay, PHA-stimulated lymphocytes; format: cell-based, human; conditions: 3-day drug incubation
CLL cells [1] = test: Cellular O2^- by hydroethidine flow cytometry, CLL cells; format: cell-based, human
Description: The method using hydroethidine to detect O2^− in tissue sections was adapted for quantitation of intracellular O2^− by flow cytometry analysis. This assay is based on the unique chemical properties of hydroethidine, a weak blue fluorescent dye which is selectively converted by O2^− to ethidium with a bright red fluorescence. The control and drug-treated cells (1.5×10^6/sample) were incubated with hydroethidine (20 ng/ml) for 60 min, washed twice with 3 ml PBS, resuspended in 2 ml PBS, and then analyzed within 1 h by flow cytometry, using the red laser channel.

SOD = SOD inhibition in vitro (restated, enzyme not specified); format: biochemical; conditions: restated in discussion
ML-1 cells = test: Cellular O2^- by hydroethidine flow cytometry, ML-1 cells; format: cell-based, human; conditions: ML-1, 1 μM, 5 h; control 4.3
human DNA polymerase α = human DNA polymerase α (Homo sapiens, UniProt P09884); test: Effect on DNA polymerase α; format: biochemical; conditions: 1-100 μM
human DNA polymerase α, sequence (P09884 whole entry): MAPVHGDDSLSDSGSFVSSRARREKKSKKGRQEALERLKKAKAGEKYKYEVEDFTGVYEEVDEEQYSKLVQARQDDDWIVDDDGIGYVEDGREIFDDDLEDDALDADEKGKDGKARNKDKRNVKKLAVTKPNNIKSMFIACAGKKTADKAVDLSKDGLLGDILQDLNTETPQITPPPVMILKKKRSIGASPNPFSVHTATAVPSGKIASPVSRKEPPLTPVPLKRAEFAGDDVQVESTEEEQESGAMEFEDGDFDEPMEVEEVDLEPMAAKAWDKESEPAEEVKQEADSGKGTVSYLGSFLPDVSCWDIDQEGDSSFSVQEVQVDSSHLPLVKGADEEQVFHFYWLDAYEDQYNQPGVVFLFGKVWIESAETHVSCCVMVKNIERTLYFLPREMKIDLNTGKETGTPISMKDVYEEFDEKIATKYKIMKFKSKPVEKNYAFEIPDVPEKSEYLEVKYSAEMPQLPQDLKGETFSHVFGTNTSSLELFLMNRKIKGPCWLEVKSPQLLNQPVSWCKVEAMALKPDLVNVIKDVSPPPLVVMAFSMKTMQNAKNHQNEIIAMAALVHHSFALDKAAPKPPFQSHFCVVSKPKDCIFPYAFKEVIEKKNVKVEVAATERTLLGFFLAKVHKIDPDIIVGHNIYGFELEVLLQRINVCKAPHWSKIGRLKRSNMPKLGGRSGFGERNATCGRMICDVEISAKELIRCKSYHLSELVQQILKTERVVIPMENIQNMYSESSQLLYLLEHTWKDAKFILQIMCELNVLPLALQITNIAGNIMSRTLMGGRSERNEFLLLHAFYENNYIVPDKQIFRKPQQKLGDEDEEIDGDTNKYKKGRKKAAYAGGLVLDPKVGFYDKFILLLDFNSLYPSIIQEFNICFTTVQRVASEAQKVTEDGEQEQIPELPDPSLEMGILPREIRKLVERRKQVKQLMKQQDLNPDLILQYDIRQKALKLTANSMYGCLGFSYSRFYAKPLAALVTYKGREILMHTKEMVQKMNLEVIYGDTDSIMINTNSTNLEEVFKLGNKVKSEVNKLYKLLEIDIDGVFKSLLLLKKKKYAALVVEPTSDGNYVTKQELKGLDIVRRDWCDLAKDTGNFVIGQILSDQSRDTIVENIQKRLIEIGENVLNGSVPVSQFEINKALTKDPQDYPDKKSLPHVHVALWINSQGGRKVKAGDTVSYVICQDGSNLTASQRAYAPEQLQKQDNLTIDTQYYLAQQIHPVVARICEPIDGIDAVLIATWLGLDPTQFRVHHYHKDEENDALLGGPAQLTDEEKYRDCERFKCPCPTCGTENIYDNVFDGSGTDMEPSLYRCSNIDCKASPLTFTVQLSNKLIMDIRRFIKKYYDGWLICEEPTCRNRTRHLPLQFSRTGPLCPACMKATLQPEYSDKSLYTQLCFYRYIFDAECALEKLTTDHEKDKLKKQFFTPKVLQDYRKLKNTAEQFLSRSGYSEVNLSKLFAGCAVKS

AML cells = test: MTT assay, primary AML cells; format: cell-based, human; conditions: 30 μM, 6 patients
[2] = system: leukemia cells from a CML (chronic myelogenous leukemia) patient in relapsed blast crisis; test: Induction of apoptosis in primary leukemia cells from a CML patient; format: cell-based, human; conditions: in vitro
CEM = test: MTT assay, CEM leukemia cells; format: cell-based; conditions: Homo sapiens, CCRF-CEM, CEM (mutant p53)
Raji = test: MTT assay, Raji cells; format: cell-based; conditions: Homo sapiens, Raji (mutant p53)
HL-60 cells [3] = test: Cellular O2^- by flow cytometry, HL-60 cells; format: cell-based, human; conditions: 0.25 μM
ML-1 [4] = test: H2O2 generation in cell culture, ML-1 cells; format: cell-based, human
leukemia cell lines = test: Apoptosis induction in leukemia cell lines; format: cell-based, human; conditions: leukemia cell lines tested
[5] = system: leukemia cell lines, primary CLL cells, and normal lymphocytes; test: Cellular accumulation of [3H]2-ME; format: in vitro ADME, human; conditions: 1 μM [3H]2-ME, 5-h incubation
Description: (§1) To determine cellular uptake of 2-ME, cells were incubated with 1 μM [^3H]2-ME (0.5 μCi/ml) for 5 h and when washed twice with cold PBS. Radioactivity associated with the cell pellets or the culture medium was quantitated by liquid scintillation counting. 2-ME concentrations were calculated based on the specific radioactivity of [^3H]2-ME, cell number, and the mean cell volume as measured by a Coulter Counter equipped with a 256-Channelyzer. HPLC was used to analyze potential cellular metabolites of 2-ME. Cells were incubated with [^3H]2-ME (0.5 μCi/ml) for 5 h, washed twice with PBS, and then extracted with 50% methanol. The extracts were analyzed by HPLC equipped with a UV detector (284 nm) and an on-line liquid scintillation counter, using a μBondapak C18 reversed-phase column and the following running conditions: 1 ml/min; 0-5 min, 100% buffer A (water:acetontrile:acetic acid=59:40:1); 5-17 min, a linear gradient of 0->100% buffer B (water:acetontrile:acetic acid=39:60:1); 17-30 min, 100% B.

CuZnSOD (SOD1) mRNA = test: cDNA microarray assay of gene expression; format: cell-based, human; conditions: 5 h after 2-ME incubation; normalized by three internal standards
Description: The Atlas™ Human cDNA Expression Array I and the Atlas™ Human Cancer cDNA Expression Array (ClonTech Laboratories, Inc.) were used in this study. One microgram of mRNA isolated from the control or drug-treated cells was converted to radioactive cDNA by reverse transcription in the presence of [α-^32P]-dATP. The ^32P-labeled cDNA was then denatured and hybridized to the eDNA expression arrays according to the procedures recommended by the manufacturer. The radioactivity on the membranes was quantified by a phosphoimager.

xanthine oxidase = test: Effect on xanthine oxidase; format: biochemical; conditions: 1-100 μM
ML-1 [6] = test: Apoptosis / nucleosomal DNA fragmentation in ML-1 cells; format: cell-based, human; conditions: 1 μM; ML-1 (wt p53)
normal lymphocytes = test: MTT assay, normal lymphocytes from healthy donors; format: cell-based, human; conditions: normal lymphocytes from 8 healthy donors; MTT 72 h / 96 h
HL-60 cells [7] = system: HL-60 cells
HL-60 [8] = test: H2O2 generation in cell culture, HL-60 cells; format: cell-based, human
CLL cells [9] = system: CLL cells
SOD1 protein = test: Immunoblot of SOD1 protein in ML-1 cells; format: cell-based, human; conditions: ML-1 cells at 10 h
CuZnSOD = test: Inhibition of CuZnSOD by estrogen derivatives; format: biochemical; conditions: FIG. 20
HL-60 [10] = test: Apoptosis / nucleosomal DNA fragmentation in HL-60 cells; format: cell-based, human
[11] = system: ML-1, HL-60 and CLL cells; test: HPLC analysis of cellular metabolites of [3H]2-ME; format: in vitro ADME, human; conditions: [3H]2-ME 0.5 μCi/ml, 5 h
Description: as §1

K562 = test: MTT assay, K562 cells; format: cell-based; conditions: Homo sapiens, K562 (no p53)
[12] = system: bovine alkaline phosphatase; test: Effect on alkaline phosphatase (removal of 5'-phosphate from [14C]GMP); format: biochemical; conditions: 1-100 μM
ALL cells = test: MTT assay, primary ALL cells; format: cell-based, human; conditions: 30 μM, 2 patients
HL-60 [13] = test: MTT assay, HL-60 cells; format: cell-based; conditions: Homo sapiens, HL-60 (no p53)

COc1cc2c(cc1O)CC[C@@H]1[C@@H]2CC[C@]2(C)[C@@H](O)CC[C@@H]12 [2-ME, 1,3,5(10)-estratrien-2,3,17b-triol 2 methylether]
viability of PHA-treated lymphocytes (PHA-treated lymphocytes): remained viable
proliferation of PHA-treated lymphocytes (PHA-treated lymphocytes; MTT, PHA 5 μg/ml): inhibited the proliferation
O2^− increase (CLL cells [1]; CLL cells, 30 μM): 226±37%
cellular O2^− (CLL cells [1]; primary leukemia cells from a CLL patient, 2-ME alone): significant accumulation of cellular O2^−
IC50 (SOD): ~20000 nM
cellular O2^− content (ML-1 cells): 6.3 arbitrary units
effect on DNA polymerase α (human DNA polymerase α): little effect
cell survival (AML cells): 49.6%
apoptosis in primary CML cells [2]: induced apoptosis
IC50 (CEM): < 1000 nM
IC50 (Raji): < 1000 nM
cellular O2^− content (HL-60 cells [3]): increase of cellular O2^−
H2O2 production (ML-1 [4]): concentration-dependent decrease of H2O2
concentrations inducing apoptosis (leukemia cell lines): 1 to 10 µM
intracellular concentrating of drug [5]: approximately 10 fold
expression of CuZnSOD mRNA, % of the control (CuZnSOD (SOD1) mRNA): 236%
effect on xanthine oxidase (xanthine oxidase): little effect
apoptotic morphology and nucleosomal DNA fragmentation (ML-1 [6]): Typical apoptotic morphology and nucleosomal DNA fragmentation were observed
cell survival (normal lymphocytes): no apparent loss of cell survival
rhodamine-123 fluorescence intensity (HL-60 cells [7]; 14 h exposure, control 70-100 arbitrary units): 20-40 units
rhodamine-123 retention (HL-60 cells [7]; by 22 h): almost all the cells had lost their ability to retain rhodamine-123
rhodamine-123 retention (HL-60 cells [7]; first 6 h of incubation): no obvious loss of dye retention
H2O2 production (HL-60 [8]): concentration-dependent decrease of H2O2
cell survival (CLL cells [9]; 30 μM, CLL cells, 31 patients): 32.7%
sensitivity to single agent (CLL cells [9]; 2-ME-resistant CLL cells): insensitive to either drug alone
toxicity to CLL cells versus normal lymphocytes (CLL cells [9]; 10 and 30 μM, p<0.0001): significantly more toxic to CLL cells than to normal lymphocytes
sensitivity to single agent (CLL cells [9]; CLL cells of the two sensitive patients): relatively sensitive
cell survival in CLL cells (CLL cells [9]; FIGS. 6-8, MTT 72-96 h): substantial loss of cell survival
cell survival (CLL cells [9]; primary leukemia cells from a CLL patient, 2-ME alone (FIG. 32)): loss of cell survival
increase of SOD1 protein (SOD1 protein): 74%
inhibition of SOD activity (CuZnSOD): substantially inhibited SOD activity
apoptotic morphology and nucleosomal DNA fragmentation (HL-60 [10]; 1 μM, HL-60 (p53−)): Typical apoptotic morphology and nucleosomal DNA fragmentation were observed
DNA fragmentation (apoptosis) in HL-60 cells (HL-60 [10]; estrogen derivatives, FIG. 20): induced DNA fragmentation
cellular drug metabolites [11]: no significant drug metabolites
IC50 (K562): < 1000 nM
effect on alkaline phosphatase [12]: little effect
cell survival (ALL cells): 56.5%
IC50 (HL-60 [13]): < 1000 nM
